Where a SMILES comes first, the peptide text is derived from it. [ ]: non-standard residue; d: D form. The star is where a group is joined. pGlu = O=C1CC[C@@H](C(=O)O)N1; Aze = O=C(O)[C@@H]1CCN1; dAze = O=C(O)[C@H]1CCN1; Bz = O=C(c1ccccc1)*
Assays:
[1] = Plasma stability determination; assay type: in vitro ADME; conditions: mouse
Experimental: Mouse plasma (purchased from IPHASE, Batch No. 23B007) was thawed in a 37°C water bath, centrifuged to remove an upper clot, and the pH value was recorded as 7-8. An appropriate volume of stock solution of test compound in acetonitrile (at a concentration of 10 mM) was diluted with acetonitrile to 1 mM, so as to serve as a test drug solution. An appropriate volume of test drug solution was added to a corresponding volume of plasma and mixed uniformly, such that the concentration of the test compound in the incubation system was 5 µM, and the content of the organic solvent acetonitrile was 0.5%. 50 µL of mixed plasma was transferred into a 96-well plate (N=2), incubated at 37°C in a water bath for a designated time, and then added with 300 µL of internal standard-containing methanol solution to terminate the reaction. The reaction mixture was vortexed and centrifuged, and the supernatant was subjected to LC-MS/MS analysis. Propantheline and ZZL-7 were used as positive controls, and processed and tested under the same conditions as the test compound. A curve was plotted with the remaining percentage of the compound against incubation time to obtain a k value, and the half-life of each compound was calculated.

[2] = Mouse pharmacokinetic detection; assay type: in vivo; conditions: CD1 mice
Experimental: The detection was carried out in 6-8-week-old CD1 mice (purchased from: Speifu (Beijing) Biotechnology Co., Ltd.). […] The concentration of the compound in a plasma sample was analyzed by LC-MS/MS. Pharmacokinetic calculation was carried out by using WinNonlin (Phoenix™, Version 8.3) or other similar software. The following pharmacokinetic parameters were calculated based on plasma concentration and time data: Oral administration: AUClast, bioavailability (F). Statistical calculation was carried out on the above parameter data. Table 3 Pharmacokinetic data of some compounds administered orally in mice

CUMS model mice [3] = assay: Forced swimming test in CUMS model mice, intravenous administration; assay type: in vivo, C57/B6 mice; conditions: single i.v. dose 100 mg/kg, test 2 hours later (FIG. 3)
Source text: (§1) 6-8-week-old C57/B6 mice (purchased from: Jinan Pengyue Laboratory Animal Breeding Co., Ltd.) were used to establish a 28-day chronic unpredictable mild stress (CUMS) animal model, and an experimental procedure referred to document description^[1,2]. After one week of acclimatization, seven experiments, including food and water deprivation, foot shock, wet bedding, cage tilting, restraint stress, shaker stress, and olfactory stimulation, were randomly applied to the animals within one week to achieve unpredictability, and the stimulation was continued for 4 consecutive weeks. The successful establishment of the model was verified by an open field test (OFT)^[3], and then pharmacodynamic evaluation was carried out. The animals were divided into a blank control group (Control), a model group (Model), a vehicle control group (Vehicle), a fluoxetine control group and a compound group in the experiment. The test compound was intravenously (i.v.) administered once at a dose of 100 mg/kg, a tail suspension test (TST) and a forced swimming test (FST)^[4,5] were carried out 2 hours later to evaluate the depression of the mice, and prolonged immobility time in the TST and the FST indicated behavioral despair of the mice. After summary statistics of data, SPSS data statistics software was used for analysis, and Graph Pad software was used for graph generation based on SPSS analysis results.

CUMS model mice [4] = assay: Tail suspension test in CUMS model mice, intravenous administration; assay type: in vivo, C57/B6 mice; conditions: single i.v. dose 100 mg/kg, test 2 hours later (FIG. 4)
Source text: as §1

[5] = Rat pharmacokinetic detection; assay type: in vivo; conditions: plasma, male SD rats; for AUC(0-t): oral gavage 15 mg/kg; for bioavailability: oral gavage 15 mg/kg vs intravenous 10 mg/kg
Experimental: The detection was carried out in 6-8-week-old male SD rats (purchased from:SPF (Beijing) Biotechnology Co., Ltd.). A test compound was dissolved in a solution containing 10% DMSO, 15% Solutol HS and 75% (aqueous solution of 10% hydroxypropyl-β-cyclodextrin), and administered via intravenous injection (10 mg/kg) or oral gavage (15 mg/kg). A concentration of the compound in a plasma sample was analyzed by LC-MS/MS. Pharmacokinetic calculation was carried out by using WinNonlin (Phoenix™, Version 8.3). The following pharmacokinetic parameters were calculated based on plasma concentration and time data: Oral administration: AUClast, bioavailability (F). Statistical calculation was carried out on the above parameter data. Table 4 Pharmacokinetic data of some compounds administered orally in rats

[6] = Permeability detection in MDR1-MDCK II cell monolayer; assay type: in vitro ADME; conditions: dog, pH 7.4, MDR1-MDCK II cells, 2 µM, 2.5 hours; for Papp A→B at 2.5 h, 2 µM: apical to basolateral; for Papp B→A at 2.5 h, 2 µM: basolateral to apical
Experimental: (§2) MDR1-MDCK II cells (imported from the Netherlands Cancer Institute) were seeded in a 96-well cell plate at a density of 3.33×10^5 cells/mL, and cultured in a carbon dioxide incubator for 4-7 days to form a cell monolayer. A Hank's balanced salt solution (HBSS, pH 7.40 ± 0.05) containing 10.0 mM 4-(2-hydroxyethyl)-1-piperazineethanesulfonic acid (HEPES) was used as a transport buffer. A DMSO stock solution of compound was diluted to 2 µM (DMSO < 1.0%) with the transport buffer, and added to the basolateral (B) side and apical (A) side respectively (N=2). The bidirectional (A-B and B-A) incubation concentration of Digoxin, a P-gp substrate, was 10 µM, and the unidirectional (A-B) incubateion concentrations of Nadolol, a low-permeability control, and Metoprolol, a high-permeability control, were 2 µM. The cell plate was incubated in a 5% CO2 cell incubator at 37°C and saturated humidity for 2.5 hours, then final samples from a receiver side and a donor side were collected, added with the transport buffer and a precipitant at an appropriate ratio, and analyzed by LC-MS/MS, and an apparent permeability coefficient, an efflux ratio and a solution recovery were calculated.
(§3) After the transport experiment was completed, an integrity of the MDR1-MDCK II cell layer was detected by a lucifer yellow detection experiment. Residual solution in apical and basolateral wells was removed, and 75 µL of transport buffer containing 100 µM lucifer yellow was added to the apical wells and 250 µL of transport buffer was added to the basolateral wells respectively. The cell plate was incubated in a 5% CO2 cell incubator at 37 °C and saturated humidity for 30 minutes, then 20 µL of sample was taken from the apical side and mixed with 60 µL of transport buffer and 80 µL of sample was taken from the basolateral side. A relative fluorescence intensity was detected by a microplate reader at excitation/emission wavelengths of 425/528 nm, and the permeability of Lucifer Yellow was calculated.
(§4) The apparent permeability coefficient (Papp), efflux ratio (ER) and %solution recovery were respectively calculated by following formulas: Papp = (VR)/(Area × Time) × ([drug]receiver)/([drug]initial,donor) = (VR)/(Area × Time) × (CR)/(C0) [formula] Efflux Ratio = (Papp (B−A))/(Papp (A−B)) [formula] %Solution Recovery = (CR × VR + CD × VD)/(C0 × VD) × 100 [formula]
(§5) VR was the volume of solution in the receiver side (0.075 mL for the apical side and 0.25 mL for the basolateral side respectively), VD was the volume of solution in the donor side (0.075 mL for the apical side and 0.25 mL for the basolateral side respectively), CR was the peak area ratio of compound in the receiver side, CD was the peak area ratio of compound in the donor side, C0 was the initial peak area ratio of compound in the donor side, Area was the surface area (0.143 cm^2) of the cell monolayer, and Time was incubation time of 9000 seconds (150 minutes). Papp(B-A) and Papp(A-B) respectively referred to the apparent permeability coefficient from the basolateral side to the apical side and the apparent permeability coefficient from the apical side to the basolateral side.
(§6) The permeability of Lucifer Yellow(%Lucifer Yellow) was calculated by the following formula: %Lucifer Yellow = (VBasolateral × RFUBasolateral)/(VApical × RFUApical + VBasolateral × RFUBasolateral) × 100 [formula]
(§7) RFUApical and RFUBasolareral respectively referred to relative fluorescence intensities of lucifer yellow in the apical side and the basolateral side. VApical and VBasolateral respectively referred to loading volumes (0.075 mL and 0.25 mL respectively) in the apical side and the basolateral side. Table 2 Permeability data of some compounds

MDR1-MDCK II cells = assay: as above; assay type: in vitro ADME; conditions: permeability rank
Experimental: as §2, §3, §4, §5, §6, §7

[7] = plasma, oral gavage 10 mg/kg vs intravenous 10 mg/kg
[8] = plasma, ZZL-7 administered at 100 mg/kg via PO

Row | half-life at 5 µM [1] [h] | AUC(0-t) ([2]; plasma, oral gavage 10 mg/kg) [ng·h/mL] | bioavailability [2, 7] [%] | Structure (SMILES) | also measured
1 | > 4.82 | – | – | [2H]C([2H])([2H])C(=O)N1CC[C@H]1C(=O)N[C@@H](c1ncco1)C(C)C [B-2-42] | –
2 | > 4.82 | – | – | COC(=O)[C@@H](NC(=O)[C@H]1CCN1C(=O)c1ccccc1)C(C)C [A-2-22] (Bz-[dAze]-Val-OMe) | –
3 | – | 3310 | 88.5 | [2H]C([2H])([2H])C(=O)N1CC[C@H]1C(=O)N[C@H](C(=O)OC)C(C)C [A-2-8] | –
4 | – | – | – | [2H]C([2H])([2H])C(=O)N1CC[C@H]1C(=O)N[C@H](c1ncco1)C(C)C [B-2-2] | AUC(0-t) ([2]; in vivo, oral gavage 10 mg/kg): 6950 ng·h/mL; bioavailability ([2]; in vivo, oral gavage 10 mg/kg vs intravenous 10 mg/kg): 153%
5 | 3.83 | – | – | COC(=O)[C@@H](NC(=O)[C@H]1CCN1C(=O)c1ccc(F)cc1)C(C)C [A-2-26] | –
6 | > 4.82 | – | – | COC(=O)[C@@H](NC(=O)[C@H]1CCN1C(=O)c1ccc(C(F)(F)F)cc1)C(C)C [A-2-24] | –
7 | > 4.82 | – | – | COC(=O)[C@@H](NC(=O)[C@@H]1CCN1C(=O)C1CC1)C(C)C [A-2-21] | –
8 | 0.417 | – | – | CC(C)[N+](C)(CCOC(=O)C1c2ccccc2Oc2ccccc21)C(C)C [Propantheline, reference compound] | –
9 | – | 3770 | 80.2 | [2H]C([2H])([2H])OC(=O)[C@@H](NC(=O)C1CCN1C(C)=O)C(C)C (stereo partly drawn) [A-2-4] | –
10 | 3.24 | – | – | COC(=O)[C@@H](NC(=O)[C@@H]1CCN1C(=O)c1ccc(C(F)(F)F)cc1)C(C)C [A-2-25] | –
11 | – | 629 | 35.3 | COC(=O)[C@@H](NC(=O)c1cnc(C)[nH]1)C(C)C [A-1-1] | immobility time in the forced swimming test (CUMS model mice [3]): rapidly reverse the prolonged immobility time; immobility time in the tail suspension test (CUMS model mice [4]): rapidly reverse the prolonged immobility time
12 | 4.75 | – | – | COC(=O)[C@@H](NC(=O)[C@@H]1CCN1C(=O)c1ccc(F)cc1)C(C)C [A-2-27] | –
13 | – | 5250 | 84.7 | [2H]C([2H])([2H])C(=O)N1CC[C@@H]1C(=O)N[C@H](C(=O)OC)C(C)C [A-2-9] | –
14 | 3.78 | – | – | COC(=O)[C@@H](NC(=O)[C@@H]1CCN1C(=O)c1ccc(Cl)cc1)C(C)C [A-2-29] | –
15 | 0.421 | – | – | COC(=O)[C@@H](NC(=O)[C@H](C)NC(C)=O)C(C)C [ZZL-7, acetyl-L-alanyl-L-valine methyl ester, reference compound] (Ac-Ala-Val-OMe) | AUC(0-t) [2, 8]: 138 ng·h/mL; bioavailability [2, 8]: 7.5%
16 | – | 3990 | 83.9 | COC(=O)[C@@H](NC(=O)[C@H]1CCN1C(C)=O)C(C)C [A-2-7] (Ac-[dAze]-Val-OMe) | –
17 | > 4.82 | – | – | COc1ccc(C(NC(=O)[C@H]2CCN2C(C)=O)C(C)C)cc1 (stereo partly drawn) [B-2-24] | –
18 | – | 3340 | 148 | COC(=O)[C@@H](NC(=O)[C@@H]1CCN1C(C)=O)C(C)C [A-2-6] (Ac-[Aze]-Val-OMe) | –
19 | > 4.82 | – | – | COC(=O)[C@@H](NC(=O)[C@@H]1CCN1C(=O)c1ccco1)C(C)C [A-2-31] | –
20 | > 4.82 | – | – | COC(=O)[C@@H](NC(=O)[C@@H]1CCN1C(=O)c1ccccc1)C(C)C [A-2-23] (Bz-[Aze]-Val-OMe) | –
21 | – | 405 | 21.5 | COC(=O)[C@@H](NC(=O)C1CCN1C(=O)C1CC1)C(C)C (stereo partly drawn) [A-2-2] | –
22 | > 4.82 | – | – | COC(=O)[C@@H](NC(=O)[C@@H]1CCN1C(=O)c1cccs1)C(C)C [A-2-33] | –

Row | Structure (SMILES) | half-life at 5 µM [1] [h] | AUC(0-t) ([2]; plasma, oral gavage 10 mg/kg) [ng·h/mL] | bioavailability [2, 7] [%] | also measured
23 | CC(=O)N1CCC1C(=O)N[C@H](c1ncc[nH]1)C(C)C (stereo partly drawn) [B-2-1] | – | 1660 | 44.9 | –
24 | CC(=O)N1CC[C@@H]1C(=O)N[C@@H](c1ccccn1)C(C)C [B-2-8] | > 4.82 | 2550 | 72.5 | –
25 | CC(=O)N1CC[C@@H]1C(=O)NC(c1cc2ccccc2[nH]1)C(C)C (stereo partly drawn) [B-2-33] | > 4.82 | 3360 | 68.3 | –
26 | CC(C)C[C@H](NC(=O)[C@@H]1CCC(=O)N1)C(=O)O [D4-pEL, reference compound] ([pGlu]-Leu-OH) | – | 555 | 7.7 | AUC(0-t) [5]: 98.6 ng·h/mL; bioavailability [5]: 1.04%; Papp A→B at 2.5 h, 2 µM [6]: < 0.216 ×10⁻⁶ cm/s; Papp B→A at 2.5 h, 2 µM [6]: 0.302 ×10⁻⁶ cm/s; Rank Papp (MDR1-MDCK II cells): Low
27 | C[C@H](NC(=O)[C@@H]1CCCN1)C(=O)O [D5-PA, reference compound] (H-Pro-Ala-OH) | 0.877 | 38 | 3.8 | AUC(0-t) [5]: 11.5 ng·h/mL; bioavailability [5]: 0.71%; Papp A→B at 2.5 h, 2 µM [6]: 0.15 ×10⁻⁶ cm/s; Papp B→A at 2.5 h, 2 µM [6]: 0.3 ×10⁻⁶ cm/s; Rank Papp (MDR1-MDCK II cells): Low

From patent publication EP4818189A1, “NITROGEN-CONTAINING HETEROCYCLIC COMPOUND, AND PREPARATION METHOD AND USE THEREFOR” (Chengdu Di'ao Pharmaceutical Group Co., Ltd., priority 2023, dated 2025)
